Test results as given in PubChem BioAssay (NCI).
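At the GI50, growth is halved. The concentration for full growth arrest is given as TGI.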

Columns and labels:
Assay in all cases: inhibition of tumour cell growth, NCI panel, 384-well format
HS 578T breast = system: HS 578T breast
M14 melanoma = system: M14 melanoma
HL-60(TB) leukemia = system: HL-60(TB) leukemia
HOP-92 NSCLC = system: HOP-92 NSCLC
786-0 renal = system: 786-0 renal
HCT-116 colon = system: HCT-116 colon
MCF7 breast = system: MCF7 breast
COLO 205 colon = system: COLO 205 colon
EKVX NSCLC = system: EKVX NSCLC
LOX IMVI melanoma = system: LOX IMVI melanoma
HT29 colon = system: HT29 colon
ACHN renal = system: ACHN renal
CAKI-1 renal = system: CAKI-1 renal
HOP-62 NSCLC = system: HOP-62 NSCLC
A549 NSCLC = system: A549 NSCLC
SK-OV-3 ovarian = system: SK-OV-3 ovarian
BT-549 breast = system: BT-549 breast
MDA-MB-231 breast = system: MDA-MB-231 breast
DU-145 prostate = system: DU-145 prostate
A498 renal = system: A498 renal
SN12C renal = system: SN12C renal
IGROV1 ovarian = system: IGROV1 ovarian
HCC-2998 colon = system: HCC-2998 colon
RXF 393 renal = system: RXF 393 renal
HCT-15 colon = system: HCT-15 colon
KM12 colon = system: KM12 colon
MALME-3M melanoma = system: MALME-3M melanoma

CN1CCC(COc2cnc(-c3cccc(Cn4nc(-c5cccc(C#N)c5)ccc4=O)c3)nc2)CC1
GI50 (HS 578T breast): 1480 nM
TGI (HS 578T breast): 2850 nM
GI50 (M14 melanoma): 2090 nM
TGI (M14 melanoma): 3530 nM
GI50 (HL-60(TB) leukemia): 1570 nM
TGI (HL-60(TB) leukemia): 2910 nM
GI50 (HOP-92 NSCLC): 1720 nM
TGI (HOP-92 NSCLC): 3400 nM
GI50 (786-0 renal): 1690 nM
TGI (786-0 renal): 3220 nM
GI50 (HCT-116 colon): 1750 nM
TGI (HCT-116 colon): 3160 nM
GI50 (MCF7 breast): 1680 nM
TGI (MCF7 breast): 3360 nM
GI50 (COLO 205 colon): 2460 nM
TGI (COLO 205 colon): 5350 nM
GI50 (EKVX NSCLC): 2770 nM
TGI (EKVX NSCLC): 6490 nM
GI50 (LOX IMVI melanoma): 1710 nM
TGI (LOX IMVI melanoma): 3100 nM
GI50 (HT29 colon): 1740 nM
TGI (HT29 colon): 3150 nM
GI50 (ACHN renal): 2050 nM
TGI (ACHN renal): 3760 nM
GI50 (CAKI-1 renal): 1730 nM
TGI (CAKI-1 renal): 3200 nM
GI50 (HOP-62 NSCLC): 1960 nM
TGI (HOP-62 NSCLC): 3770 nM
GI50 (A549 NSCLC): 2200 nM
TGI (A549 NSCLC): 4560 nM
GI50 (SK-OV-3 ovarian): > 100000 nM
TGI (SK-OV-3 ovarian): > 100000 nM
GI50 (BT-549 breast): 1440 nM
TGI (BT-549 breast): 2760 nM
GI50 (MDA-MB-231 breast): 1940 nM
TGI (MDA-MB-231 breast): 3410 nM
GI50 (DU-145 prostate): 2530 nM
TGI (DU-145 prostate): 5890 nM
GI50 (A498 renal): 2040 nM
TGI (A498 renal): 3620 nM
GI50 (SN12C renal): > 100000 nM
TGI (SN12C renal): > 100000 nM
GI50 (IGROV1 ovarian): 2170 nM
TGI (IGROV1 ovarian): 4160 nM
GI50 (HCC-2998 colon): 3200 nM
TGI (HCC-2998 colon): 5670 nM
GI50 (RXF 393 renal): 1320 nM
TGI (RXF 393 renal): 2640 nM
GI50 (HCT-15 colon): 1450 nM
TGI (HCT-15 colon): 2940 nM
GI50 (KM12 colon): 2380 nM
TGI (KM12 colon): 4810 nM
GI50 (MALME-3M melanoma): 1590 nM
TGI (MALME-3M melanoma): 2930 nM
